Legend:
[1] = Maximum concentration of actives in suspension concentrate (SC); format: physicochemical; conditions: for Concentration in SC: maximum concentration of active in suspension concentrate
Description: To the liquid carrier (approximately 80% of the required amount) is added the required quantity of the dispersing agent and the mixture is stirred until a fully homogeneous solution is formed. Under high shear conditions, the desired amount of active inhibitor component is added to the dispersant solution and the formulation is stirred until it becomes completely homogeneous. The resulting dispersed active inhibitor is transferred to a bead mill where it is continuously milled until the required particle size distribution is obtained. Desirably, the particle size is less than 10 microns. Under additional stirring, the remaining liquid carrier, optionally a preservative agent and optionally a thickening agent are added to the milled formulation until a homogeneous suspension concentrate is formed. The required quantities of the components of the formulation are in each case determined with reference to the scale of the process which is being conducted.
(§1) In order to highlight the increased antipolymerant content that can be achieved, the solubility of three antipolymerants in ethylbenzene, a widely used solvent for supplying antipolymerants for styrene monomer production, is compared with concentration when the antipolymerant is supplied as a SC. The comparative data for the antipolymerants are set out in Table 1.
(§2) This effect is further illustrated by reference to a further example wherein a stable suspension concentrate of phenothiazine (PTZ), containing 40 percent by weight of the PTZ component, was easily obtained using the above methodology. PTZ is a widely used inhibitor in (meth)acrylic acid and ester processes, but has low solubility in most solvents that are compatible with such processes. In most industrial cases, PTZ is supplied in its solid form and dissolved in the monomer to form a dilute solution for dosing into the monomer purification process. Thus, for example, in laboratory tests, PTZ had the following solubilities: acrylic acid (2.6 w/w %), methacrylic acid (2.4 w/w %), n-butyl acrylate (9.7 w/w %), methyl methacrylate (8.4 w/w %).

[2] = Solubility of antipolymerants in ethylbenzene; format: physicochemical; conditions: solvent ethylbenzene
From the text: as §1
Thus, it is clear that, for all three active components, the concentration achieved in the SC is far greater than that observed in ethylbenzene. The same concentration could also be obtained when two of the active components were combined in the SC. By contrast, combining more than one of the actives in ethylbenzene, the total concentration of actives was reduced. Thus, for a combination of 2,5-di-tert-butyl-p-benzoquinone and dibenzylhydroxylamine, the total concentration in ethylbenzene was <10 w/w %.

[3] = hazard classification; cited from earlier work
[4] = Acrylic acid tube test (inhibition period); conditions: 25 ppm inhibitor, lean air (5% oxygen in nitrogen), 120° C., until first white precipitate
Description: In a typical test, a series of tubes containing acrylic acid and inhibitor was sparged with a lean air mixture (5% oxygen in nitrogen). These tubes were then heated at 120° C. until the first signs of polymerisation were detected (by means of the formation of white precipitate), and this was determined as the inhibition period.

[5] = Laboratory solubility tests of PTZ in monomers; format: physicochemical
From the text: as §2

[6] = Batch tests: polymer content in refluxing styrene monomer; conditions: for Effect: batch test, styrene, 120° C., inhibitor or retarder
Description: The particular ethylenically unsaturated compound used in the tests was a vinyl aromatic monomer, specifically styrene monomer. The use of a vinyl aromatic monomer for this purpose is illustrative and is not intended to exclude other ethylenically unsaturated compounds from the scope of this invention.
Batch tests (the results of which are detailed in Table 2), and continuous flow tests were carried out in order to represent different types of processing conditions which can occur in the industrial processing of ethylenically unsaturated compounds. These tests compare the compositions of the present invention with compositions of the prior art.
The batch test was designed in order to show whether a test composition is an inhibitor or a retarder. The tests were carried out in styrene monomer refluxing under reduced pressure at 120° C. in order to reduce the presence of atmospheric oxygen to such low levels as can be expected in a commercial styrene monomer purification plant.
For the batch tests the vinyl aromatic monomer composition containing the test substances was heated to 120° C. and stirred under reduced pressure so that it refluxed at the test temperature. Samples were taken at intervals of time and tested for polymer content in order to assess the effectiveness of polymerisation control.

Compound	Concentration in SC [1] [w/w %]	Solubility in ethylbenzene [2] [w/w %]	Dermal Toxicity [3]	Oral Toxicity [3]	Toxic by Inhalation [3]	other results
CC(C)(C)C1=CC(=O)C(C(C)(C)C)=CC1=O [BQ, 2,5-di-tert-butyl-p-benzoquinone]	45.0	11.9	No	No	No	–
CC(C)(C)c1cc(O)c(C(C)(C)C)cc1O [HQ, 2,5-di-tert-butyl hydroquinone]	45.0	6.7	–	–	–	–
c1ccc2c(c1)Nc1ccccc1S2 [PTZ, phenothiazine]	–	–	–	–	–	PTZ content of stable suspension concentrate ([1]; stable suspension concentrate): 40 percent by weight; Inhibition Period [4]: 531 min; solubility in acrylic acid ([5]; acrylic acid): 2.6 w/w %; solubility in methacrylic acid ([5]; methacrylic acid): 2.4 w/w %; solubility in methyl methacrylate ([5]; methyl methacrylate): 8.4 w/w %; solubility in n-butyl acrylate ([5]; n-butyl acrylate): 9.7 w/w %
CCC(C)c1cc([N+](=O)[O-])cc([N+](=O)[O-])c1O (stereo not shown) [DNBP, 4,6-Dinitro-2-sec-butyl phenol]	–	–	Yes	–	–	Effect [6]: retarder; Effect ([6]; listed as Control 1): Retarder; Polymer (ppm) @ (time) 180 mins ([6]; styrene refluxing under reduced pressure at 120° C., 180 mins, component doses in ppm as in table): 4000 ppm
ON(Cc1ccccc1)Cc1ccccc1 [DBHA, N,N-dibenzyl hydroxylamine]	45.0	1.6	No	No	No	–

Source: patent publication US20140194559A1, “Novel Inhibitor Compositions and Methods of Use” (NuFarm UK Limited, priority 2011, published 2014)
